Test results: patent US10370385B2, “Tricyclic mosquitocides and methods of making and using thereof” (The Arizona Board of Regents on Behalf of the University of …, priority 2014, dated 2019)

Key:
[1] = test system: Aedes aegypti (Rockefeller strain) mosquitoes; experiment: Microinjection into female mosquitoes before blood feeding; observation for defective phenotypes (midgut, blood meal storage); assay type: in vivo; conditions: 200 nL of 5.0 mM compound in 5% DMSO microinjected into four day old females; fed human blood one day later
Method: Aedes aegypti (Rockefeller strain) mosquitoes were reared in standard conditions. Four day old female mosquitoes were microinjected with 200 nL of 5% DMSO (control) or the compound described in Example 1, i.e. 4-isopropyl-8-phenyl-1,3,4,6,6a,9b-hexahydrothiopyrano [3,4-e]isoindole-7,9(8H,9aH)-dione (5.0 mM in 5% DMSO), using Nanoject II (Drummond). The injected mosquitoes were recovered for one day in the environmental chamber and fed on warmed human blood through a membrane feeder. Twenty fully fed mosquitoes from each group were observed under a dissecting microscope for defective phenotypes, including midgut and primary follicle development in the ovaries during the first gonotrophic cycle.

blood-fed mosquitoes = experiment: Evaluation of follicle size after microinjection into blood-fed mosquitos; assay type: in vivo, Aedes aegypti; conditions: 200 nl of 0.7 mM compound microinjected one hour after blood feeding; ovaries dissected 48 h post blood meal; DMSO control 452.8±6.4 μm
Method: The mosquitos were reared in environmental chambers. Larvae were then fed with a mixture of tropical flakes, rat chow, liver powder, or cat food pellets. Adult pests were maintained on 10% sucrose. Four-day old mosquitos were allowed to feed on human blood supplemented with fresh ATP. One hour after blood feeding, the mosquitos were briefly chilled at 4° C. to immobilize. 200 nl of the compound, 4-isopropyl-8-phenyl-1,3,4,6,6a,9b-hexahydrothiopyrano [3,4-e]isoindole-7,9(8H,9aH)-dione, was diluted in water to a final concentration of 0.7 mM before use. Then the compound was microinjected with a microinjector into fully fed mosquitos. For each experiment, the mosquitos were also microinjected with 2% DMSO (control). Mosquitos were allowed to feed 10% sucrose, and 48 h post blood meal, ovaries were dissected from the injected mosquitos in 1×PBS under a microscope. Ovaries were teased to separate follicles, and the images were digitally captured for follicle length measurement.

[2] = test system: mosquito larvae (second instar); experiment: Evaluation of mosquito larval mortality; assay type: in vivo, Aedes aegypti; conditions: 0.2 mM in larval growth media, 24 hours of exposure
Method: Two-day-old second instar larvae were transferred to wells in a plate containing 1 ml of larval growth media. The 4-isopropyl-8-phenyl-1,3,4,6,6a,9b-hexahydrothiopyrano [3,4-e]isoindole-7,9(8H,9aH)-dione and DMSO (control) were added directly to the media and swirled. The final concentration of the 4-isopropyl-8-phenyl-1,3,4,6,6a,9b-hexahydrothiopyrano [3,4-e]isoindole-7,9(8H,9aH)-dione in each well was 0.2 mM, the DMSO concentration was 0.2%. The plates were kept in the environmental chamber. Mosquito larvae were examined under a microscope for any sign of mortality 24 hours after exposure. Data obtained from at least three biological replicates were statistically analyzed with the Bonferroni post tests.

With CC(C)[C@@H]1CSC[C@@H]2C1=CC[C@@H]1C(=O)N(c3ccccc3)C(=O)[C@@H]12 [4-isopropyl-8-phenyl-1,3,4,6,6a,9b-hexahydrothiopyrano [3,4-e]isoindole-7,9(8H,9aH)-dione] the “blood-fed mosquitoes exhibiting the defect in the alimentary canal (blood meal misdirected into the ventral diverticulum)” value [1] was 40%, the follicle size (blood-fed mosquitoes) was 145.6±11.0 μm and the “number of mosquito larvae died” value [2] was 18 out of 45 mosquito larvae. It also gave a mosquito larvae died ([2]; all control larvae survived) of 40%.
